One may read the logP as a log measure of how a compound divides between an organic and an aqueous phase. Low readings indicate lower lipophilicity, high ones higher lipophilicity. In general, IC50 refers to the concentration that inhibits the measured activity by half.

The text below walks through data of US20210214385A1, “INHIBITORS OF D-AMINO ACID OXIDASE AND USES THEREOF” (SyneuRx International (Taiwan) Corp., priority 2018, published 2021).

“And” between values parts separate entries of the source, which are not always exact repeats. Equal entries are not always repeated.

Data set [1] in a line: Log P, n-octanol/water partition coefficient, HPLC. Format: physicochemical. How it is done:
The sample compounds tested in the log P experiments included enriched tannic acid (prepared by the enrichment method 10 of U.S. Ser. No. 10/105,378), compounds 21, 24, 27, 46, and 56. First, n-Octanol and water was saturated with each other to achieve partition equilibrium and the two phases were separated for further use. Sample compounds were dissolved in water and n-octanol phase, respectively. Both phases were mixed by vertical rotation movement. After the water and n-octal phases reached equilibrium state, both phases were analyzed to determine the concentrations of the sample compounds for the determination of log P values. All samples were performed in a Shimadzu CBM-20A FfPLC system. The chromatographic separation was carried out on a 5 μm, Kinetex C18 100 Å LC column (100×4.6 mm). The mobile phase was 0.1% formic acid in water and acetonitrile/Methanol set as gradient. Flow rate used was 1.2 mL/min. Column was at room temperature 20±5° C.
The partition coefficient abbreviated P is calculated based on the concentration in n-octanol divided by the concentration in water. The formula of log P is shown below: […]

Data set [2] addresses human D-amino acid oxidase (hDAAO) (Homo sapiens, UniProt P14920). Kind of data set: In vitro measurement of human D-amino acid oxidase (hDAAO) activity, D-Serine substrate, Amplex Red fluorescence. Format: biochemical.

Chain of human D-amino acid oxidase (hDAAO) (P14920 whole entry): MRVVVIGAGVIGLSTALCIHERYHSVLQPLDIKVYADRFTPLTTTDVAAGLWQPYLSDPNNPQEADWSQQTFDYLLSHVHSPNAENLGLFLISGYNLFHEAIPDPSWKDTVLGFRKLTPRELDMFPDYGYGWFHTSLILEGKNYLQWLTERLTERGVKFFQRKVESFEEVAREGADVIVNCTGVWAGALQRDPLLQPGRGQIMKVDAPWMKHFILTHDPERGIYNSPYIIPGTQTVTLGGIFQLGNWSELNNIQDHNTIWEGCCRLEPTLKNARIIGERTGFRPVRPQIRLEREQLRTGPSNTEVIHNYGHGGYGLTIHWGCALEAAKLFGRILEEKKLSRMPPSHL

Take `O=C(Oc1ccccc1)c1cc(O)c(O)c(OC(=O)c2cc(O)c(O)c(OC(=O)c3cc(O)c(O)c(OC(=O)c4cc(O)c(O)c(OC(=O)c5cc(O)c(O)c(O)c5)c4)c3)c2)c1` [Compound 46, 5-((5-((5-((2,3-dihydroxy-5-(phenoxycarbonyl)phenoxy)carbonyl)-2,3-dihydroxyphenoxy)carbonyl)-2,3-dihydroxyphenoxy)carbonyl)-2,3-dihydroxyphenyl 3,4,5-trihydroxybenzoate]: in data set [1], the logP turned out to be 2.02. For the same compound, the IC50 in data set [2] was 24.6 nM and 24 nM.

With `O=C(Oc1cc(OC(=O)c2cc(O)c(O)c(OC(=O)c3cc(O)c(O)c(OC(=O)c4cc(O)c(O)c(OC(=O)c5cc(O)c(O)c(OC(=O)c6cc(O)c(O)c(O)c6)c5)c4)c3)c2)cc(OC(=O)c2cc(O)c(O)c(OC(=O)c3cc(O)c(O)c(OC(=O)c4cc(O)c(O)c(OC(=O)c5cc(O)c(O)c(OC(=O)c6cc(O)c(O)c(O)c6)c5)c4)c3)c2)c1)c1cc(O)c(O)c(OC(=O)c2cc(O)c(O)c(OC(=O)c3cc(O)c(O)c(OC(=O)c4cc(O)c(O)c(OC(=O)c5cc(O)c(O)c(O)c5)c4)c3)c2)c1` [Compound 56, benzene-1,3,5-triyl tris(3-((3-((3-((3,4-dihydroxy-5-((3,4,5-trihydroxybenzoyl)oxy)benzoyl)oxy)-4,5-dihydroxybenzoyl)oxy)-4,5-dihydroxybenzoyl)oxy)-4,5-dihydroxybenzoate)], in data set [1], the logP turned out to be 1.92. Also, in data set [2], the IC50 is 5.4 nM and 5 nM.
